# Laboratory results: patent publication US20050260136A1, “Topical immune competency diagnostic compositions and methods of use” (priority 2004, published 2005)
# Assays:
# [1] = system: HIV sero-positive AIDS patients; assay: Side effects of the topical treatments in the 28-day clinical trial; type: in vivo, human; conditions: 28-day study
# Method: (§1) For the examples, HIV sero-positive AIDS patients were tested based on HIV sero-positivity for a 28-day observational clinical trial. 40 subjects completed the study. Topical 0.1 ml applications of 0.4%, 0.2%, 0.1%, 0.05% Diphenylcyclopropenone in a proprietary anhydrous skin penetrating vehicle plus the vehicle placebo were made to the inner aspect of the forearms of patients and covered with a 1 inch adhesive bandage. Skin reactivity scores of a 4-point scaled based on induration and erythema were recorded weekly, as were side effects to the topical treatments.
# Subjects with CD4 counts less than 300 cu/mm were non-skin reactive. This was found in 36 of the 40 subjects. […] Statistical Sensitivity was 87.4% and Specificity was 100% with the 0.4% Topical Diphenylcyclopropenone Solution selected as the optimal dosage concentration. […] None of the subjects withdrew because of side effects.
# [2] = system: HIV sero-positive AIDS patients; assay: Topical DPC skin reaction test (Reactors/Non-Reactors) in a 28-day observational clinical trial; type: in vivo, human; conditions: for # Non-Reactor Patients / # Non-Reactor Patients (%) / # Reactor Patients / # Reactor Patients (%): right forearm
# Method: as §1
# For the examples, skin reaction scores were assigned using the following scale:
# For the examples, patients having a skin reaction score of +2, +3 and +4 were considered to have a positive response and are labeled as “Reactors”; patients having a skin reaction score of 0 and +1 were considered to not have a response and are labeled as “Non-Reactors”.
# Skin Reactions Scores as indicators of immune function responses following single applications of 0.4%, 0.2%, 0.1% and 0.05% DPC compositions were used to distinguish between patients with T Cell CD4 blood counts less than 300 per cu/mm and patients with T Cell CD4 counts higher than 300 per cu/mm.
# [3] = 0.05% DPC applied, patients with CD4 <300 cu/mm
# [4] = 0.05% DPC applied, patients with CD4 >300 cu/mm
# [5] = 0.1% DPC applied, patients with CD4 <300 cu/mm
# [6] = 0.1% DPC applied, patients with CD4 >300 cu/mm
# [7] = 0.2% DPC applied, patients with CD4 <300 cu/mm
# [8] = 0.2% DPC applied, patients with CD4 >300 cu/mm
# [9] = 0.4% DPC applied, patients with CD4 <300 cu/mm
# [10] = 0.4% DPC applied, patients with CD4 >300 cu/mm
# [11] = combined 0.1% + 0.05% DPC dosages, patients with CD4 <300 cu/mm
# [12] = combined 00.1% + 0.05% DPC dosages, patients with CD4 >300 cu/mm
# [13] = combined 0.4% + 0.2% DPC dosages, patients with CD4 <300 cu/mm
# [14] = combined 0.4% + 0.2% DPC dosages, patients with CD4 >300 cu/mm
structure (smiles),measurement,setting,value
"O=c1c(-c2ccccc2)c1-c1ccccc1 [DPC, Diphenylcyclopropenone]",subjects who withdrew because of side effects,[1]; 40 subjects,None
same,Side effects,[1]; topical 0.1 ml applications of 0.05-0.4% DPC,minimal and were limited to adenopathies that were self-limited and disappeared upon completion of the study
same,# Non-Reactor Patients,[2]; [3],2
same,# Non-Reactor Patients (%),[2]; [3],100%
same,# Reactor Patients,[2]; [3],0 (0%)
same,# Reactor Patients (%),[2]; [3],0 (0%)
same,# Non-Reactor Patients,[2]; [4],8
same,# Non-Reactor Patients (%),[2]; [4],100%
same,# Reactor Patients,[2]; [4],0 (0%)
same,# Reactor Patients (%),[2]; [4],0 (0%)
same,# Non-Reactor Patients,[2]; [5],2
same,# Non-Reactor Patients (%),[2]; [5],100%
same,# Reactor Patients,[2]; [5],0 (0%)
same,# Reactor Patients (%),[2]; [5],0 (0%)
same,# Non-Reactor Patients,[2]; [6],4
same,# Non-Reactor Patients (%),[2]; [6],80%
same,# Reactor Patients,[2]; [6],1
same,# Reactor Patients (%),[2]; [6],20%
same,# Non-Reactor Patients,[2]; [7],2
same,# Non-Reactor Patients (%),[2]; [7],40%
same,# Reactor Patients (%),[2]; [7],60%
same,# Non-Reactor Patients (%),[2]; [8],28.6%
same,# Reactor Patients,[2]; [8],5
same,# Reactor Patients (%),[2]; [8],71.4%
same,# Non-Reactor Patients (%),[2]; [9],100%
same,# Reactor Patients (%),[2]; [9],0 (0%)
same,# Non-Reactor Patients,"[2]; 0.4% DPC applied, patients with CD4 <300 cu/mm, Non-Reactor = score 0 or +1",4
same,# Non-Reactor Patients (%),[2]; [10],14.3%
same,# Reactor Patients,[2]; [10],6
same,# Reactor Patients (%),[2]; [10],85.7%
same,"subjects in whom skin reactivity agreed with CD4 count (>300 cu/mm reactive, <300 cu/mm non-skin reactive)",[2]; all 40 subjects of the study,36 of the 40
same,Non-Reactors,[2]; [11],4
same,Non-Reactors (%),[2]; [11],100%
same,Reactors,[2]; [11],0 (0%)
same,Reactors (%),[2]; [11],0 (0%)
same,Non-Reactors,[2]; [12],12
same,Non-Reactors (%),[2]; [12],92.3%
same,Reactors,[2]; [12],1
same,Reactors (%),[2]; [12],7.7%
same,Non-Reactors,[2]; [13],6
same,Non-Reactors (%),[2]; [13],67%
same,Reactors,[2]; [13],3
same,Reactors (%),[2]; [13],33%
same,Non-Reactors,[2]; [14],3
same,Non-Reactors (%),[2]; [14],21.4%
same,Reactors,[2]; [14],11
same,Reactors (%),[2]; [14],78.6%
